System: seasonal allergic rhinitis
Experiment: Double-blinded, randomized clinical trials in seasonal allergic rhinitis patients
Experimental: Efficacy endpoints in all the studies were Total Symptom Score, Total Nasal Symptom Score, Total Non-nasal Symptom Score, and Health Quality of Life (HQOL) analysis in efficacy trials. […] This parameter measures the total symptom relief by the patient after 24 hours before taking the next day dose.

## Clc1ccc2c(c1)CCc1cccnc1C2=C1CCNCC1 [Desloratadine, desloratadine]
5 mg once daily, adult and adolescent seasonal allergic rhinitis patients
  Total symptom scores: significantly reduced
5 mg, seasonal allergic rhinitis patients
  Reduction of nasal symptoms versus placebo: significantly (p<0.01) more effective than placebo
24 hours after dose, over the entire dosage range
  AM NOW total symptom score: Statistically significant (p<0.05) reductions were maintained for the full 24 hour dosing interval

— patent US20060154948A1, “Treating allergic and inflammatory conditions” (priority 2005, published 2006)
